# Results as given in patent US20230248723A1, “PYRROLO[2,3-B]PYRAZINE COMPOUNDS AS CCCDNA INHIBITORS FOR THE TREATMENT OF HEPATITIS B VIRUS (HBV) INFECTION” (Hoffmann-La Roche Inc., priority 2017, published 2023).
# Read-outs that look alike come from different tables or passages of the source.
# Tests used:
# Type in all cases: cell-based
# HBeAg = experiment: HBeAg, multiplex assay, HBV-infected PHH; details: for IC50: Hepatitis B virus, read-out: HBeAg IC50 (μM) Median, PHH, patient-derived HBV (GT D)
# Procedure: (§1) Fresh primary human hepatocytes (PXB-PHH) harvested from humanized mice (uPA/SCID mice)—herein called PHH—were obtained from PhoenixBio Co., Ltd (Japan). Cells were seeded on a collagen I-coated plate at the following cell density: 35,000 cells/well (384-well), 70,000 cells/well (96-well), or, 400,000 cells/well (24-well) in modified hepatocyte clonal growth medium (dHCGM). dHCGM is a DMEM medium containing 100 U/ml Penicillin, 100 μg/ml Streptomycin, 20 mM Hopes, 44 mM NaHCO3, 15 μg/ml L-proline, 0.25 μg/ml insulin, 50 nM Dexamethazone, 5 ng/ml EGF, 0.1 mM Asc-2P, 2% DMSO and 10% FBS (Ishida et al., 2015). Cells were cultured at 37° C. incubator in a humidified atmosphere with 5% CO2. Culture medium was replaced 24 h post-plating and every 2 days until harvest.
# (§2) Following 4 day of maturation with 1 μM MB-1, HLC were incubated with HBV (purified from CHB individuals) at multiplicity of infection (MOI) 10-40 without PEG for 24 hr; virus inoculum was removed the following day. […] Compound treatment in HLC and PHH was started at day 3 post infection. Compound (in powder) was dissolved in DMSO; the final concentration of DMSO added to cells is 1%. Fresh compound was replenished every 2 day until cells were harvested at day 10 (PHH), or day 14 (HLC). Compound effect on HBV and cellular toxicity was measured by multiplex assay (HBsAg, HBeAg, albumin), branched DNA (pgRNA), or digital PCR (cccDNA) and depicted as % of inhibition compared to DMSO control. Graphs were prepared using Spotfire software.
# (§3) A custom, Luminex-based multiplex assay that simultaneously measured HBeAg, albumin, and HBsAg was developed by Radix BioSolutions (Georgetown, Tex.). This is a sandwich immunoassay; each capture antibody was coupled with xMAP™ Luminex magnetic beads. The dynamic ranges of analyte detection are as follows: HBeAg (1-316 ng/ml), albumin (3.1-10,000 ng/ml), and HBsAg (0.1-100 ng/ml) with coefficient variant (CV) […]. Samples were read on FlexMAP 3D (Luminex) and analyzed by Genedata software.
# cccDNA = cccDNA assay (digital PCR), HBV-infected PHH; details: for IC50: Hepatitis B virus, patient-derived HBV (GT D), read-out: cccDNA IC50 (μM) Median
# Procedure: as §1
# Following 4 day of maturation with 1 μM MB-1, HLC were incubated with HBV (purified from CHB individuals) at multiplicity of infection (MOI) 10-40 without PEG for 24 hr; virus inoculum was removed the following day. HBV infection in PHH was performed at MOI 40+4% PEG. Compound treatment in HLC and PHH was started at day 3 post infection. Compound (in powder) was dissolved in DMSO; the final concentration of DMSO added to cells is 1%. Fresh compound was replenished every 2 day until cells were harvested at day 10 (PHH), or day 14 (HLC). Compound effect on HBV and cellular toxicity was measured by multiplex assay (HBsAg, HBeAg, albumin), branched DNA (pgRNA), or digital PCR (cccDNA) and depicted as % of inhibition compared to DMSO control. Graphs were prepared using Spotfire software.
# HBV-infected cells (in 384- or 96-well plate) were lysed with Cells-to-CT Lysis Reagents according to manufacturer's instruction (Thermo Scientific). To remove excess of RC-DNA, samples were digested with T5 exonuclease (10 U) (New England Biolabs), at 37° C. for 1 hr; enzyme was inactivated by heating the samples at 80° C. for 15 min. DNA samples (1.2 μl) were added into the digital PCR Master Mix (QuantStudio Digital PCR Kit, Thermo Scientific) containing cccDNA primers 5′-[…] (forward), 5′-[…] (reverse), and […] (probe) (Werle-Lapostolle et al., 2004) in a total volume 5 μl, and loaded into dPCR array using AccuFill System (AB). Each sample was loaded into 4 subarrays/256 through-holes. Digital PCR assay was run on QuantStudio 12K Flex (AB) and data was analyzed by Digital Suite Software (AB).
# pgRNA = pgRNA assay (branched DNA), HBV-infected PHH; details: patient-derived HBV (GT D), read-out: pgRNA IC50 (μM) Median
# Procedure: as §1, §2
# Levels of pgRNA in infected cells (96-well plate) were measured using QuantiGene Singleplex 2.0 assay (Affymetrix), a hybridization-based assay that utilizes the xMAP™ Luminex magnetic beads and branched DNA (bDNA) signal amplification technology. The assay is performed in 96-well plate according to manufacturer's recommendation. Briefly, cells were lysed and lysates were incubated with HBV probe sets panel at 50-55° C. for 30 min then stored at −80° C. Signal amplification is achieved via sequential hybridization of PreAmplifier, Amplifier, and Label Probe. After adding Streptavidin phycoerythrin (SAPE) substrate, the signal is read using a FlexMap 3D (Luminex) instrument.
# [1] = tested on: albumin (secreted, cellular toxicity marker); experiment: Albumin (in vitro cellular tox marker), multiplex assay, PHH; details: human, primary human hepatocytes (PXB-PHH) infected with HBV, patient-derived HBV (GT D), read-out: In vitro tox albumin IC50 (μM) Median
# Procedure: as §1, §2, §3
# HBsAg = experiment: HBsAg, multiplex assay, HBV-infected PHH; details: for IC50: Hepatitis B virus, read-out: HBsAg IC50 (μM) Median, PHH, patient-derived HBV (GT D)
# Procedure: as §1, §2, §3
# HBV DNA = HBV DNA in culture medium of HBV-infected PHH; details: PHH, patient-derived HBV GT D, MOI 40, treatment from day 3, day 10 pi
# Source text: FIG. 8: Establishment of dPCR assay for cccDNA quantification. […] A 3.2-kb, linearized plasmid HBV is used as a standard curve for relative quantification of HBV DNA by TaqMan-PCR. […] (B) Testing primer & PCR specificity and removal of excess RC-DNA. In contrast to TaqMan-PCR (relative quantification method), digital PCR (dPCR) is an absolute quantification method without the need of standard curve. […] First step—Testing primer and PCR specificity. Serum-derived HBV (contains RC-DNA, devoid of cccDNA) was used as a DNA template for dPCR using 2 sets of primers (for HBV core and cccDNA region) (Werle-Lapostolle et al., 2004). Samples were amplified by dPCR on QuantStudio 12K Flex Real-Time PCR System (AB); 4 subarrays (256 through-holes) were used for each sample. […] Second step—Removal of excess RC-DNA. PHH seeded in 96-well were infected with HBV. At day 6 pi, cell lysates were digested with Plasmid safe, ATP-dependent, DNAse (PSAD), T5 exonuclease, or, T5 exonuclease followed by EcoRI, for 1 hr at 37° C. Samples were amplified by dPCR using cccDNA primers on QuantStudio 12K Flex Real-Time PCR System (AB); 4 subarrays (256 through-holes) were used for each sample. […] Fresh medium and compound was replenished every 2 day. At day 10 pi, culture media were harvested and measured for HBV DNA, HBsAg, and HBeAg. Albumin was used as a surrogate of in vitro tox marker. Cells were lysed and treated with T5 exonuclease, cccDNA was then measured by dPCR on QuantStudio 12K Flex Real-Time PCR System (AB); 4 subarrays (256 through-holes) were used for each sample. […] Cells were treated with compounds at the indicated concentrations starting from day 3 post infection (patient-derived HBV, GT D). Fresh medium and compound was replenished every 2 day. Cells were harvested at day 10 pi; viral markers and albumin were measured from culture medium.
# HBV from sera of CHB individuals were purified using OptiPrep™ (Axis-Shield, Norway) density gradient. Briefly, OptiPrep™ stock solution (60%) was diluted to 50% and 10% in PBS; equal volume of each solution was then added into SW41 tubes (BD Biosciences). Linear gradient was performed by placing the tubes on Gradient Master 108™ (Biocomp) at setting: 800, 25 rpm for 30″. Two hundred microliter (200 μl) of serum was overlaid on the top of gradient and samples were centrifuged at 100,000×g for 2 hours at 4° C. […] Fractions containing the peak of HBV DNA were pooled and used as virus inoculum for all infection experiments. All fractions were stored at −80° C. until used.
# Fresh primary human hepatocytes (PXB-PHH) harvested from humanized mice (uPA/SCID mice)—herein called PHH—were obtained from PhoenixBio Co., Ltd (Japan).
# [2] = PHH, patient-derived HBV GT D, MOI 40, treatment from day 3, day 10 pi
Structure (SMILES),IC50 (HBeAg) [µM],IC50 (cccDNA) [µM],IC50 (pgRNA; Hepatitis B virus) [µM],IC50 at 7 days [1] [µM],IC50 (HBsAg) [µM],IC50 (pgRNA) [µM],effect on HBeAg (other viral markers) (HBeAg; [2]),"effect on cccDNA (other viral markers) (cccDNA; patient-derived HBV GT D, MOI 40, treatment from day 3, day 10 pi, dPCR)",effect on HBV DNA (HBV DNA),effect on HBsAg (other viral markers) (HBsAg; [2])
CC(C)(CO)NC(=O)c1c[nH]c2ncc(C3CC3)nc12 [compound 1],0.17,52.7,14.2,18.7,0.17,,,,,
O=C(NC1(CO)CCCC1)c1c[nH]c2ncc(C3CC3)nc12 [compound 2],0.68,30.1,,24.2,0.68,,,,,
CC(C)(O)C(CCO)NC(=O)c1c[nH]c2ncc(C3CC3)nc12 (stereo not drawn) [compound 3],3.58,43.7,12.8,33.4,3.62,,,,,
CC[C@@H](CO)NC(=O)c1c[nH]c2ncc(C3CC3)nc12 [compound 4],0.68,63.7,< 10,48,0.68,6.93,,,,
C[C@H](CO)NC(=O)c1c[nH]c2ncc(C3CC3)nc12 [compound 5],2.95,160,≥ 100,135,5.61,,,,,
O=C(NC1(CO)CCOCC1)c1c[nH]c2ncc(C3CC3)nc12 [compound 6],0.49,≥ 166,15.7,≥ 166,0.75,,,,,
C[C@@H](CO)NC(=O)c1c[nH]c2ncc(C3CC3)nc12 [compound 8],2.29,30.8,,31.9,1.22,,,,,
CC(C)(O)C(C)(C)NC(=O)c1c[nH]c2ncc(C3CC3)nc12 [compound 9],0.68,49.2,,21.3,0.51,,,,,
"C=C1[C@H](CO)[C@@H](O)C[C@@H]1n1cnc2c(=O)[nH]c(N)nc21 [entecavir, reference compound]",,,,,,,no effect,no effect,highly potent,no effect
